What all share (type): cell-based
The subject of test [1] is Mycoplasma hyorhini standard strain BTS-7 strain (Mhr-BTS-7; NCTC 10130). Nature of the test: Anti-mycoplasma activity assay, MIC. As to conditions: NCTC10130. As for the experimental part: (§1) The minimum inhibitory concentration of the pleuromutilin derivative containing thiazole-pyridine benzyl quaternary ammonium salt side chain against different mycoplasmas was tested with tiamulin as (purchased from Shanghai Yuanye Bio-Technology Co., Ltd) a positive control using a microbroth dilution method, and the antibacterial effect of the compound against different mycoplasmas was evaluated.
(§2) Experimental strains include Mycoplasma hyopneumoniae standard strain J strain (Mhp-J; NCTC 10110), Mycoplasma hyopneumoniae clinical isolate LH strain (Mhp-LH), Mycoplasma hyorhini standard strain BTS-7 strain (Mhr-BTS-7; NCTC 10130), Mycoplasma gallisepticum R strain (MG-R) and Mycoplasma synoviae WVU1853 strain (MS-WVU1853; NCTC 10124) (purchased from National Collection of Type Cultures, United Kingdom).
(§3) The specific operation steps are as follows: • (1) preparation of KM2 medium: 38.9 g of KM2 medium (purchased from Guangdong Huankai Microbial Sci. & Tech. Co., Ltd.) was weighed, added to 800 mL of distilled water, boiled and dissolved, and autoclaved at 115° C. for 20 min for later use. • (2) preparation of bacterial liquid stock: 0.5 mL of each of Mycoplasma hyopneumoniae (Mhp), Mycoplasma hyorhina (Mhr), Mycoplasma gallisepticum (MG) and Mycoplasma synoviae (MS) was taken and transferred to 4.5 mL of KM2 liquid medium, and when the colour of the medium turned yellow, each of the bacteria was sub-packaged at 0.5 mL per tube, and stored as the bacterial liquid at −70° C. • (3) determination of bacterial liquid titre (colour change unit, CCU): 96-well plate method was used to measure the bacterial liquid titre. The preserved bacterial liquid stock was taken from −70° C., melt and equilibrated to room temperature. 0.18 mL of KM2 medium was added to each well of the middle 4 rows of the 96-well plate (that is, 4 parallels), 0.02 mL of the bacterial liquid stock was taken and added to the wells of the first column, respectively, and subjected to 10-fold dilution until 10^−11. A negative control containing only KM2 medium was set (column 12). The plate was sealed and put into an incubator at 37° C., and the results were observed day by day. The highest dilution at which the colour of the medium can change was the CCU/mL of the strain. • (4) determination of MIC: the minimum inhibitory concentration of the compound against mycoplasmas was determined by a microbroth dilution method. Each drug to be tested was prepared as a stock solution with a concentration of 2560 μg/mL, and each drug stock solution was 2-fold diluted with KM2 liquid medium, and the test concentration range was 0.015-128 μg/mL (large concentration gradient) and 0.000004-0.06 μg/mL (small concentration gradient). An appropriate amount of seed bacterial liquid was taken and diluted to 10^4 CCU/mL serially according to its titre. Drugs of various dilutions were added sequentially to the 96-well plate, and then an equal amount of diluted bacterial liquid was added. 200 μL of diluted mycoplasma liquid was set as a positive control, 200 μL of KM2 liquid culture medium was set as a negative control, and a solvent control group (10 μL of drug solvent+190 μL of mycoplasma liquid) was also set. Three parallels were set for each experiment. After all the culture plates were sealed, they were allowed to culture at 37° C. and observed daily, and the final MIC values were recorded. (See FIG. 22 for the MIC determination results of the representative compound 7 against 5 mycoplasma strains)

Test [2] concerns Mycoplasma gallisepticum R strain (MG-R). Briefly: Anti-mycoplasma activity assay, MIC. As to conditions: Mycoplasmoides gallisepticum. As for the experimental part:
as §1, §2, §3

The subject of test [3] is Mycoplasma synoviae WVU1853 strain (MS-WVU1853; NCTC 10124). Nature of the test: Anti-mycoplasma activity assay, MIC. To be noted: Mycoplasmopsis synoviae, NCTC10124. As for the experimental part:
as §1, §2, §3

In test [4] the test system is Mycoplasma hyopneumoniae clinical isolate LH strain (Mhp-LH). Briefly: Anti-mycoplasma activity assay, MIC. To be noted: Mesomycoplasma hyopneumoniae. As for the experimental part:
as §1, §2, §3

Test [5] has as its system Mycoplasma hyopneumoniae standard strain J strain (Mhp-J; NCTC 10110). Nature of the test: Anti-mycoplasma activity assay, MIC. To be noted: Mesomycoplasma hyopneumoniae, NCTC10110. As for the experimental part: as §1, §2, §3
The test system of test [6] is Staphylococcus aureus ATCC 29213. Briefly: MIC, microbroth dilution, standard strains. To be noted: ATCC29213, ATCC 29213, read-out: Minimum inhibitory concentration. In a few lines:
(§4)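 Positive control: moxifloxacin. Method: broth microdilution on standard reference strains.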

Test [7] has as its system methicillin-resistant Staphylococcus aureus ATCC 33591. Briefly: MIC, microbroth dilution, standard strains. To be noted: ATCC33591, ATCC 33591, read-out: Minimum inhibitory concentration. The essentials: as §4
(In broth dilution the organism is exposed to a series of concentrations in liquid medium.)

Test [8] has as its system Staphylococcus aureus ATCC 25923. Briefly: MIC, microbroth dilution, standard strains. As to conditions: ATCC25923, ATCC 25923, read-out: Minimum inhibitory concentration. In a few lines: as §4
Test [9] has as its system Escherichia coli ATCC 25922. Nature of the test: MIC, microbroth dilution, standard strains. As to conditions: ATCC25922, ATCC 25922, read-out: Minimum inhibitory concentration. The essentials:
as §4

The subject of another test is Salmonella ATCC 14028. Briefly: MIC, microbroth dilution, standard strains. To be noted: ATCC14028, ATCC 14028, read-out: Minimum inhibitory concentration. In a few lines: as §4
Test [10] has as its system Escherichia coli CMCC 44103. Briefly: MIC, microbroth dilution, standard strains. To be noted: CMCC44103, CMCC 44103, read-out: Minimum inhibitory concentration. In a few lines: as §4
Test [11] deals with Acinetobacter baumannii ATCC 19606. Nature of the test: MIC, microbroth dilution, standard strains. To be noted: ATCC19606, ATCC 19606, read-out: Minimum inhibitory concentration. The essentials:
as §4

Test [12] has as its system Staphylococcus epidermidis ATCC 12228. Nature of the test: MIC, microbroth dilution, standard strains. To be noted: ATCC12228, ATCC 12228, read-out: Minimum inhibitory concentration. The essentials:
as §4

Molecules are shown by their SMILES. Where a name gives a salt, the structure may show the parent alone.

As to `C=C[C@]1(C)C[C@@H](OC(=O)CSc2nc(-c3cc[n+](Cc4ccc([N+](=O)[O-])cc4)cc3)cs2)[C@]2(C)[C@H](C)CC[C@]3(CCC(=O)[C@H]32)[C@@H](C)[C@@H]1O` [Compound 7, 1-(4-(nitro)benzyl)-4-(2-(8-hydroxy-4,7,9,12-tetramethyl-3-oxo-7-vinyldecahydro-4,9a-propancyclopent[8]cyclen-5-yl)oxy)-2-oxoethyl)thiazol-4-yl)pyridyl bromide salt], the MIC came to 0.008 µg/mL in test [1]; 0.004 µg/mL in [2]; 0.015 µg/mL in test [3]; 0.002 µg/mL in test [4]; 0.004 µg/mL in test [5]; 0.125 µg/mL in test [6]. For the same compound, the MIC amounted to 1 µg/mL in test [7]; 0.5 µg/mL in test [8]; 1 µg/mL in test [9]; 2 µg/mL with Salmonella ATCC 14028; 0.5 µg/mL in [10]; 2 µg/mL in [11]. Moreover, the MIC in test [12] is 2 µg/mL.

The values are drawn from patent publication US12384771B2, “Pleuromutilin derivative containing thiazole-pyridine benzyl quaternary ammonium salt side chain and preparation method and use thereof” (SHAANXI UNIVERSITY OF SCIENCE AND TECHNOLOGY, priority 2022, dated 2025).
